Assay results: ChEMBL document CHEMBL4334526, “Synthesis of Peptoid-Based Class I-Selective Histone Deacetylase Inhibitors with Chemosensitizing Properties” (J Med Chem, 2019)
pIC50: −log10 of the molar value.

Columns and labels:
[1] = molecular target: T1, Class 1 histone deacetylase (Homo sapiens, UniProt Q13547+O15379+Q92769+Q9BY41); test: Inhibition of class 1 HDAC in human CAL27 cells assessed as potentiation of cisplatin-induced cytotoxicity by measuring combination index at […] in presence of […] cisplatin by MTT assay based Chou-Talalay analysis; format: cell-based; conditions: CAL-27
[2] = molecular target: T2, Protein deacetylase HDAC6 (Homo sapiens, UniProt Q9UBN7); test: Inhibition of human full length N-terminal GST-tagged HDAC6 expressed in baculovirus infected Sf9 insect cells ZMAL as substrate incubated for 90 mins by fluorescence assay; format: cell-based
T2 sequence (Q9UBN7 whole entry): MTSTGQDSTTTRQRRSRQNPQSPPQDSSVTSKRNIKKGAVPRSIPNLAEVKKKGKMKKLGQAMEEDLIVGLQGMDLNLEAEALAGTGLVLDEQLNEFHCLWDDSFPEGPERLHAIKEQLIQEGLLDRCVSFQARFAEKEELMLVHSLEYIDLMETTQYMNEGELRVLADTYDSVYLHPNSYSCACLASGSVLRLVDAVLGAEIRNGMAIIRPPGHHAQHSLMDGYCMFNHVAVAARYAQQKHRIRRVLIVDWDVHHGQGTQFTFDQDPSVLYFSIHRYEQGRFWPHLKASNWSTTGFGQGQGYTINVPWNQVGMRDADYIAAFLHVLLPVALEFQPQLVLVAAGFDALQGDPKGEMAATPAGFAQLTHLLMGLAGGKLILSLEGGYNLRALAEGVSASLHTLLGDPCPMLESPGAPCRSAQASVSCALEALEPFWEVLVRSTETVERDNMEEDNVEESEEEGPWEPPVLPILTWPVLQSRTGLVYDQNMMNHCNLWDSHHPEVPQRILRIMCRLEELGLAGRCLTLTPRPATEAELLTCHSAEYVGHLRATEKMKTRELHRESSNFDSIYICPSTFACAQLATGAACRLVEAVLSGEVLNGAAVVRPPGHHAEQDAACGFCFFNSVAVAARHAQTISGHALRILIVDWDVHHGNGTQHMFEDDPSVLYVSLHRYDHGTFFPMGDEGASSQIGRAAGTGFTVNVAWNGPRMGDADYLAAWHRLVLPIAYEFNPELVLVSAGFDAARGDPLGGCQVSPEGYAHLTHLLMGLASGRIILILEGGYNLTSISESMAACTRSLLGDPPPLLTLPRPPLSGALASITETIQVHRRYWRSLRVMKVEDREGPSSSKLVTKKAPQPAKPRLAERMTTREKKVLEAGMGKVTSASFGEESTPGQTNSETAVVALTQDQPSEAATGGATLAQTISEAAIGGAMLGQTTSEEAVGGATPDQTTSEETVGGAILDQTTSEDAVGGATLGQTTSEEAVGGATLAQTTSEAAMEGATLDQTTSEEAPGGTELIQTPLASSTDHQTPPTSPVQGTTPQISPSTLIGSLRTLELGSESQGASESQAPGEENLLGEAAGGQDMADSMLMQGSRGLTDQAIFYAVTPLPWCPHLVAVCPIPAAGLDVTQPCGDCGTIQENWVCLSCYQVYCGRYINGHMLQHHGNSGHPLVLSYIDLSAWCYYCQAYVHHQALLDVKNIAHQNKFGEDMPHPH

[3] = molecular target: Histone deacetylase 3/Nuclear receptor corepressor 2 (HDAC3/NCoR2) (Homo sapiens, UniProt O15379); test: biochemical; format: cell-based, Sf9
Description: Inhibition of human recombinant full length C-terminal His-tagged HDAC3 (1 to 428 residues)/N-terminal GST-tagged NCOR2 (395 to 489 residues) expressed in baculovirus infected Sf9 insect cells using Boc-Lys(epsilon-acetyl)-AMC as substrate incubated for 90 mins by fluorescence assay

Histone deacetylase 1 = Histone deacetylase 1 (Homo sapiens, UniProt Q13547); test: Inhibition of recombinant human full length C-terminal His/FLAG-tagged HDAC1 expressed in baculovirus infected Sf9 insect cells using ZMAL as substrate incubated for 90 mins by fluorescence assay
CAL-27 = test: Cytotoxicity against human CAL27 cells assessed as reduction in cell survival measured after 72 hrs by MTT assay; format: functional, cell-based; conditions: CAL-27, 72 h
Histone deacetylase [4] = test: Inhibition of HDAC in human A2780 cells using Boc-Lys(epsilon-Ac)-AMC as substrate preincubated for 18 hrs followed by substrate addition and measured after 3 hrs by fluorescence assay; format: cell-based
Histone deacetylase [5] = test: Inhibition of HDAC in human CAL27 cells using Boc-Lys(epsilon-Ac)-AMC as substrate preincubated for 18 hrs followed by substrate addition and measured after 3 hrs by fluorescence assay; format: cell-based
Histone deacetylase 4 = Histone deacetylase 4 (Homo sapiens, UniProt P56524); test: Inhibition of recombinant human N-terminal GST-fused and C-terminal His-tagged HDAC4 (627 to 1084 residues) expressed in baculovirus infected insect cells using Boc-Lys(TFa)-AMC as substrate preincubated for 5 mins followed by substrate addition and measured after 90 mins by fluorescence assay
Histone deacetylase 8 = molecular target: T3, Histone deacetylase 8 (Homo sapiens, UniProt Q9BY41); test: Inhibition of recombinant human C-terminal His-fusion tagged/N-terminal Strep-2 tagged HDAC8 (1 to 377 residues) expressed in insect cells using Boc-Lys(TFa)-AMC as substrate preincubated for 5 mins followed by substrate addition measured after 90 mins by fluorescence assay
T3 sequence (Q9BY41 whole entry): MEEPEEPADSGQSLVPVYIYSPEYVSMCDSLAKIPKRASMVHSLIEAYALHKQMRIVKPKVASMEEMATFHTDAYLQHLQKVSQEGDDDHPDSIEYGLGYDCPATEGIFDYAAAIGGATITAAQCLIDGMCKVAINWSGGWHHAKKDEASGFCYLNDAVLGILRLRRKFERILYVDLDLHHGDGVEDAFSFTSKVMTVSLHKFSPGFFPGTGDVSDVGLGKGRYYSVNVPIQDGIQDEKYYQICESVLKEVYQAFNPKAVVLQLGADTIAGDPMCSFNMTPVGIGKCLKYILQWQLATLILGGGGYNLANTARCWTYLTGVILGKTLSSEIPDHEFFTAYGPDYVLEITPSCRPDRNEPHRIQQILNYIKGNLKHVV

[6] = molecular target: T1, Class 1 histone deacetylase; test: Inhibition of class 1 HDAC in human CAL27 cells assessed as potentiation of cisplatin-induced cytotoxicity by measuring combination index at 1 uM in presence of 1 uM cisplatin by MTT assay based Chou-Talalay analysis; format: cell-based; conditions: CAL-27
[7] = molecular target: T1, Class 1 histone deacetylase; test: Inhibition of class 1 HDAC in human Cal27CisR cells assessed as potentiation of cisplatin-induced cytotoxicity by measuring combination index at 1 uM in presence of 10 uM cisplatin by MTT assay based Chou-Talalay analysis; format: cell-based
[8] = molecular target: T1, Class 1 histone deacetylase; test: Inhibition of class 1 HDAC in human Cal27CisR cells assessed as potentiation of cisplatin-induced cytotoxicity by measuring combination index at […] in presence of 100 uM cisplatin by MTT assay based Chou-Talalay analysis; format: cell-based
[9] = molecular target: T1, Class 1 histone deacetylase; conditions: CAL-27
Description: Inhibition of class 1 HDAC in human CAL27 cells assessed as potentiation of cisplatin-induced cytotoxicity by measuring combination index at 0.5 uM in presence of 0.1 uM cisplatin by MTT assay based Chou-Talalay analysis

[10] = molecular target: T1, Class 1 histone deacetylase; conditions: CAL-27; remark: listed apart in the source
Description: Inhibition of class 1 HDAC in human CAL27 cells assessed as potentiation of cisplatin-induced cytotoxicity by measuring combination index at 0.5 uM in presence of 3.2 uM cisplatin by MTT assay based Chou-Talalay analysis

[11] = molecular target: T1, Class 1 histone deacetylase
Description: Inhibition of class 1 HDAC in human Cal27CisR cells assessed as potentiation of cisplatin-induced cytotoxicity by measuring combination index at 0.5 uM in presence of 10 uM cisplatin by MTT assay based Chou-Talalay analysis

Histone deacetylase 1, sequence (Q13547 whole entry): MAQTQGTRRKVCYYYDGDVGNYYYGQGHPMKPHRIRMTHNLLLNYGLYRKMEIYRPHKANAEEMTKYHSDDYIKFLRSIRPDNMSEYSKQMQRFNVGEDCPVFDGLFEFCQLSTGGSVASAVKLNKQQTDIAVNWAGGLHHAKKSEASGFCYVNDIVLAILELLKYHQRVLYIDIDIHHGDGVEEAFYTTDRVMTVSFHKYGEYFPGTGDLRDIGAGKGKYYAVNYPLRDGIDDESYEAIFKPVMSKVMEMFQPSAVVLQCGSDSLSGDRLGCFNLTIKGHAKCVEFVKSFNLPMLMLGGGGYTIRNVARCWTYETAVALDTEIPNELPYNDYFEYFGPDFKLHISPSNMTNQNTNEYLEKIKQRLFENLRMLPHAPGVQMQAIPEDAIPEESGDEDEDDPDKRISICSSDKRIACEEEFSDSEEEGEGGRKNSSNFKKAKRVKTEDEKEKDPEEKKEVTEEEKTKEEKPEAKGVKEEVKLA
Histone deacetylase 4, sequence (P56524 whole entry, the tested form may be a part): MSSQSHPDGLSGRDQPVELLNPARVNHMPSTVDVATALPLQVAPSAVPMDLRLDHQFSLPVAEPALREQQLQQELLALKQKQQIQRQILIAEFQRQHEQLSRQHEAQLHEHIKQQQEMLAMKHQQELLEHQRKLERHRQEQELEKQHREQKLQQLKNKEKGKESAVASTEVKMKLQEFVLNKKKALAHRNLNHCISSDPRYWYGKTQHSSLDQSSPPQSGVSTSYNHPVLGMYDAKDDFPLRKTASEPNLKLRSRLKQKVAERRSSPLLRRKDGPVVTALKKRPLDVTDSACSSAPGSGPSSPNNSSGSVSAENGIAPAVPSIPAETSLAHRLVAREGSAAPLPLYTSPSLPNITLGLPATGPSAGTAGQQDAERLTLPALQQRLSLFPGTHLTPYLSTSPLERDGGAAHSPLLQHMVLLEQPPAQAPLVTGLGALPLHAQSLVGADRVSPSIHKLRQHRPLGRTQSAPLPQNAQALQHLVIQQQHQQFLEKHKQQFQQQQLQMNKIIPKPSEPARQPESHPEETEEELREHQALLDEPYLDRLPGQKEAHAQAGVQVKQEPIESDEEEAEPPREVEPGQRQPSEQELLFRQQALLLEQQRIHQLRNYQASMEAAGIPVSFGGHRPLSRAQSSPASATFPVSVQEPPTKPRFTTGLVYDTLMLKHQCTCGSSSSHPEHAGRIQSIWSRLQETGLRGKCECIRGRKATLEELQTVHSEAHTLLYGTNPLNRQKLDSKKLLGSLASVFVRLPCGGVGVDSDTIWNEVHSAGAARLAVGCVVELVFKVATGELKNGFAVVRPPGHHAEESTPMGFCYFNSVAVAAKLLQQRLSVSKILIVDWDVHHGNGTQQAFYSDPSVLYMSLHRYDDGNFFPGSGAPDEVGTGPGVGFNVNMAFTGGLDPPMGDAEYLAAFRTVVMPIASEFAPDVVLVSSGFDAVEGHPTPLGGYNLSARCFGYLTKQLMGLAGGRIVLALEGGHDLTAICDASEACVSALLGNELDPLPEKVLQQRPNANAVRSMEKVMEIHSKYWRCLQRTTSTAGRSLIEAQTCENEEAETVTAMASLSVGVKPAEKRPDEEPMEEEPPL
T1 sequence (O15379 whole entry, looked up, one chain of several): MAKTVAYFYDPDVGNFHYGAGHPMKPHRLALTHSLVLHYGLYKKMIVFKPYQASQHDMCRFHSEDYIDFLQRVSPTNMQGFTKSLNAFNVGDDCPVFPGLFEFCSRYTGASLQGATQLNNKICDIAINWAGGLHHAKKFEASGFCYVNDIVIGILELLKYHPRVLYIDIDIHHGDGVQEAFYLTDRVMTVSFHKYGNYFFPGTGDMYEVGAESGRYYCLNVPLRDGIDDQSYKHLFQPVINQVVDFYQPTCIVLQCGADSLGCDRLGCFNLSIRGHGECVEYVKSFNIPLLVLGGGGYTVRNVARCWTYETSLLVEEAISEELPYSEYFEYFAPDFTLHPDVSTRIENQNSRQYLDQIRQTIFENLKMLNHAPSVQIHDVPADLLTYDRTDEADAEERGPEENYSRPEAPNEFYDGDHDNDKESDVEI
T1 sequence (Q13547 whole entry, looked up, one chain of several): as the sequence (Q13547 whole entry) above
T1 sequence (Q92769 whole entry, looked up, one chain of several): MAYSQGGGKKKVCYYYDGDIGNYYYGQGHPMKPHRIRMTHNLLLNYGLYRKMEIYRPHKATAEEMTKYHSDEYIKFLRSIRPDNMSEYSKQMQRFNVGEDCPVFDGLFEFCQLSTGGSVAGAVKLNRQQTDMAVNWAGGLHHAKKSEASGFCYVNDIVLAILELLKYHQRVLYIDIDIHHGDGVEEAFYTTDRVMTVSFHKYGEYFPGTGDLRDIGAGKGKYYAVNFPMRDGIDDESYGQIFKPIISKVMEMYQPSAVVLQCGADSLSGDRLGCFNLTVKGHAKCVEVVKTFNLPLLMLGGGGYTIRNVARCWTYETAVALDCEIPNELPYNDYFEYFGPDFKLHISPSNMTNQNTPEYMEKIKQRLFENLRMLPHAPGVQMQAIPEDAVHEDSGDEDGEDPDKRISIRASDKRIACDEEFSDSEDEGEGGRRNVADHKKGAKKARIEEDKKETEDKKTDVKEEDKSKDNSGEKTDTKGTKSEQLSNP
Histone deacetylase 3/Nuclear receptor corepressor 2 (HDAC3/NCoR2), sequence (O15379 whole entry): as the sequence (O15379 whole entry, looked up, one chain of several) above
Histone deacetylase 3/Nuclear receptor corepressor 2 (HDAC3/NCoR2), sequence (Q9Y618 whole entry, further chain): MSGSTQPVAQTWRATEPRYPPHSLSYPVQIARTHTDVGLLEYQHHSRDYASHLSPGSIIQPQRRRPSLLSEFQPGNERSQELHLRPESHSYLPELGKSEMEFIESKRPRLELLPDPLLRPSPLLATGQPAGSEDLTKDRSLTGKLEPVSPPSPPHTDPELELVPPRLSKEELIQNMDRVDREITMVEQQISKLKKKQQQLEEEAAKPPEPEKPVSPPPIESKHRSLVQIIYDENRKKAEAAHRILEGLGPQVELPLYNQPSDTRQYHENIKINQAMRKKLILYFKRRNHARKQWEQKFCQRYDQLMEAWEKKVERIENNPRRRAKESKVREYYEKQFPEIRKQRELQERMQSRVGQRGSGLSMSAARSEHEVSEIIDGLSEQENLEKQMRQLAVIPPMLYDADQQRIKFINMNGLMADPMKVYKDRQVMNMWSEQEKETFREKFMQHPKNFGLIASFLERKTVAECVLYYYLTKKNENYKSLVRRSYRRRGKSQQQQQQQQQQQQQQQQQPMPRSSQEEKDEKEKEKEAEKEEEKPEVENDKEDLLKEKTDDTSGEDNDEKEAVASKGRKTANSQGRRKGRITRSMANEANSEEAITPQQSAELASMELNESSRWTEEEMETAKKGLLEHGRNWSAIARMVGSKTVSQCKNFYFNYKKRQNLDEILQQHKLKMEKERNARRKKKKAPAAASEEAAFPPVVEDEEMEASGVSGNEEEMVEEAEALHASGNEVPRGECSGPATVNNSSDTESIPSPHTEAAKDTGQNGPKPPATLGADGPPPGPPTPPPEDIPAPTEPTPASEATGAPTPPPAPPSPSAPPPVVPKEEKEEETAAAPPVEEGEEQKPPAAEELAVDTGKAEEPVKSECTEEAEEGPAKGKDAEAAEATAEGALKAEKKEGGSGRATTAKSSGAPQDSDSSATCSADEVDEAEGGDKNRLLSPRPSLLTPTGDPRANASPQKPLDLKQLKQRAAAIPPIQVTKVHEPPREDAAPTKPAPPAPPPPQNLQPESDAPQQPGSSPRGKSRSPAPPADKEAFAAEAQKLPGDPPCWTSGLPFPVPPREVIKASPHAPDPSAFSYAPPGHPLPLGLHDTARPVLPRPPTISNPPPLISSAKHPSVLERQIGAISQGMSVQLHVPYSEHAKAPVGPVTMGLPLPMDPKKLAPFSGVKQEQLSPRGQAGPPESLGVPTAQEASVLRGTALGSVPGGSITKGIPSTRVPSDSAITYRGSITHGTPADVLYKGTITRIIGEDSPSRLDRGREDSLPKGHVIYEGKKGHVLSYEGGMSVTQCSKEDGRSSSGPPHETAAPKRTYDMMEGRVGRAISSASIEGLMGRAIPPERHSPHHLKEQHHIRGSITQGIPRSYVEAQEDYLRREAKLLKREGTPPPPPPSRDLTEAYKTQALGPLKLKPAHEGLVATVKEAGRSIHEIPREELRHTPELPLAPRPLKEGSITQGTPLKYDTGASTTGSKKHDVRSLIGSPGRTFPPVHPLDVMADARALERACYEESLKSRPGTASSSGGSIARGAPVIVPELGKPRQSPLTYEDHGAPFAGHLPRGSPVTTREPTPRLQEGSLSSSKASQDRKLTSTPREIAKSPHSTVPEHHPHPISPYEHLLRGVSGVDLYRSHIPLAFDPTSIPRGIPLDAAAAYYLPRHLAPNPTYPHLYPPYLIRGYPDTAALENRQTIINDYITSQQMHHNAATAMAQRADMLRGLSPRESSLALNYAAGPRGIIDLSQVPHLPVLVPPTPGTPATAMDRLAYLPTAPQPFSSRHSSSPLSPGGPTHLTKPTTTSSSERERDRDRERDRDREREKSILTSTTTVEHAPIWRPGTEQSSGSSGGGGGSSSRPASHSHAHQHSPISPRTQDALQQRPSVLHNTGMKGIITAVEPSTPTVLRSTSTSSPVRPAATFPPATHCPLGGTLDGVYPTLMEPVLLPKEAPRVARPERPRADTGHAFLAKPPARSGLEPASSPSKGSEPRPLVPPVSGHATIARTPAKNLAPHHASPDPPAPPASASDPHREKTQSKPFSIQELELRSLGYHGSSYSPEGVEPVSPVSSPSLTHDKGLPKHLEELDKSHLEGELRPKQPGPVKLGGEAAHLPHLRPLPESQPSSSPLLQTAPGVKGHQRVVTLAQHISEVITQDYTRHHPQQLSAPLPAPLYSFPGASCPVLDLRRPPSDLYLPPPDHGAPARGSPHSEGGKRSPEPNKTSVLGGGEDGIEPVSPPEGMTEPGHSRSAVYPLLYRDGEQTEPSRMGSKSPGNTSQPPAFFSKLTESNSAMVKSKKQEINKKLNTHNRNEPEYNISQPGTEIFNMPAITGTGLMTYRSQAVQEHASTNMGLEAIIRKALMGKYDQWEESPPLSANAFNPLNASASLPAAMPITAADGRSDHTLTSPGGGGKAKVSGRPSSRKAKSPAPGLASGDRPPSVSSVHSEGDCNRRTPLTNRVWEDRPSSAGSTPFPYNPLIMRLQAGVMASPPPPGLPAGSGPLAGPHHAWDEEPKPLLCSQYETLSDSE

Compound | CI [1] | pIC50 [2] | pIC50 [3] | pIC50 (Histone deacetylase 1) | pIC50 (CAL-27) | IC50 (Histone deacetylase [4]) [nM] | IC50 (Histone deacetylase [5]) [nM] | pIC50 (Histone deacetylase 4) | pIC50 (Histone deacetylase 8) | CI [6] | CI [7] | CI [8] | CI [9] | CI [10] | CI [11]
Cc1cc(C)cc(C(=O)N(CC(=O)NCc2ccccc2)Cc2ccc(C(=O)Nc3cc(-c4ccccc4)ccc3N)cc2)c1 | 0.34 | < 5.00 | < 5.00 | 7.29 | 5.05 | 1720 | 630 | < 5.00 | 5.50 | 0.46 | 0.5 | 0.19 | 0.5 | 0.21 | 0.76
Cc1cc(C)cc(C(=O)N(CCCCCC(=O)Nc2cc(-c3ccccc3)ccc2N)CC(=O)NCc2ccccc2)c1 | < 0.2 | < 5.00 |  | 7.24 | 4.72 | 1430 | 470 | < 5.00 | < 5.00 | < 0.2 | < 0.2 | 0.09 |  |  | 
CN(C)c1ccc(C(=O)N(CC(=O)NCc2ccccc2)Cc2ccc(C(=O)Nc3ccccc3N)cc2)cc1 |  | < 5.00 | 6.23 | 7.42 | 5.80 | 480 | 110 | < 5.00 | 5.04 |  |  |  | 0.4 | 0.07 | 0.12
